Source: patent US11000033B2, “Ketone or oxime compound, and herbicide” (NISSAN CHEMICAL CORPORATION, priority 2014, dated 2021)

How the values were obtained:
Format in all cases: in vivo
beet = experiment: Test Example 5: effect on crop by foliage application, plastic box (symbol f); conditions: 320 g/ha, 3 weeks after application
Method in brief: (§1)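 Sterilized diluvial soil, plastic box (21 × 13 × 7 cm); spot sowing, ~1.5 cm soil cover; greenhouse 25–30° C.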

Scirpus juncoides = experiment: Test Example 2: herbicidal activity, application during weed generation in submerged conditions (symbol B); conditions: Table 23; application herbicide amount 320 g/ha; grade 0-5 by criteria of Test Example 1
Method in brief: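 Paddy pot test, submerged (4 cm water), alluvial soil, mixed sowing; greenhouse 25–30° C. Emulsion formulation diluted to predetermined rate, applied onto floodwater at 1–2 leaf stage. Visual herbicidal rating at 3 wk post-treatment.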

Amaranthus retroflexus = experiment: Test Example 5: herbicidal effect by foliage application, plastic box (symbol N); conditions: 320 g/ha, 3 weeks after application
Method in brief: (§2)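 Post-emergence spray; diluvial soil (sterilized), ~1.5 cm seed cover; greenhouse 25–30° C; 14-day-old plants; water-diluted emulsion at predetermined dose; visual score at 3 wk post-treatment.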

corn = experiment: Test Example 4: effect on crop by soil treatment (symbol c)
Method in brief: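 Sterilized diluvial soil, spot sowing, ~1.5 cm soil cover; greenhouse 25–30° C.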

[1] = test system: Echinochloa crus-galli var. crus-galli; experiment: Test Example 5: herbicidal effect by foliage application, plastic box (symbol H); conditions: 320 g/ha, 3 weeks after application
Method in brief: as §2

rapeseed = experiment: Test Example 5: effect on crop by foliage application, plastic box (symbol g); conditions: 320 g/ha, 3 weeks after application
Method in brief: as §1

Apera spica-venti [2] = experiment: Test Example 5: herbicidal effect by foliage application, plastic box (symbol L); conditions: 320 g/ha, 3 weeks after application
Method in brief: as §2

Apera spica-venti [3] = experiment: Test Example 4: herbicidal effect by soil treatment (symbol L); conditions: application herbicide amount 320 g/ha
Method in brief: (§3)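 Seeds were sown in sterilized diluvial soil, covered with about 1.5 cm of soil, and the soil surface was sprayed with a water-diluted emulsion of the compound at a predetermined rate. Plants grew in a greenhouse at 25° C. to 30° C.; effects were scored visually 3 weeks after application.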

soybean = experiment: Test Example 4: effect on crop by soil treatment (symbol d)
Method in brief: (§4)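 Plants are raised in a greenhouse (25° C. to 30° C.) from spot-sown seed, which sits under about 1.5 cm of sterilized diluvial soil in a box shared with weed species.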

Lolium multiflorum Lam. = experiment: Test Example 5: herbicidal effect by foliage application, plastic box (symbol K); conditions: 320 g/ha, 3 weeks after application
Method in brief: as §2

[4] = test system: Echinochloa crus-galli var. crus-galli; experiment: Test Example 3: herbicidal effect by foliage application, Wagner pot (symbol H); conditions: application herbicide amount 320 g/ha
Method in brief: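 Foliar spray of water-diluted emulsion formulation at a predetermined herbicide amount onto 14-day-old plants in flooded alluvial soil (water depth 0.1–0.5 cm), greenhouse 25–30 °C; rice sown alongside. Scored 3 wk post-application on set criteria.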

Galium spurium = experiment: Test Example 4: herbicidal effect by soil treatment (symbol Q)
Method in brief: as §3

Avena fatua = experiment: Test Example 5: herbicidal effect by foliage application, plastic box (symbol I); conditions: 320 g/ha, 3 weeks after application
Method in brief: as §2

wheat = experiment: Test Example 4: effect on crop by soil treatment (symbol e); conditions: for e: wheat, effect on crop grade: application herbicide amount 320 g/ha
Method in brief: as §4

Stellaria media = experiment: Test Example 4: herbicidal effect by soil treatment (symbol P)
Method in brief: as §3

Veronica persica = experiment: Test Example 4: herbicidal effect by soil treatment (symbol R); conditions: application herbicide amount 320 g/ha
Method in brief: as §3

[5] = application herbicide amount 320 g/ha

Compound | f: beet, effect on crop grade (beet) | Herbicidal effect grade, B: Scirpus juncoides (Scirpus juncoides) | N: Amaranthus retroflexus, herbicidal effect grade (Amaranthus retroflexus) | H: Echinochloa crus-galli var. crus-galli, herbicidal effect grade [1] | g: rapeseed, effect on crop grade (rapeseed) | L: Apera spica-venti, herbicidal effect grade (Apera spica-venti [2]) | K: Lolium multiflorum Lam., herbicidal effect grade (Lolium multiflorum Lam.) | herbicidal effect on H (Echinochloa crus-galli var. crus-galli), grade 0-5 [4] | I: Avena fatua, herbicidal effect grade (Avena fatua) | c: corn, effect on crop grade (corn; [5]) | e: wheat, effect on crop grade (wheat) | P: Stellaria media, herbicidal effect grade (Stellaria media; [5]) | L: Apera spica-venti, herbicidal effect grade (Apera spica-venti [3]) | d: soybean, effect on crop grade (soybean; [5]) | R: Veronica persica, herbicidal effect grade (Veronica persica) | further results
CON=C(C)CC1CC(OC(=O)OC)=C(c2c(C)cc(C)cc2C)C1=O (stereo not drawn) [1-014] | 3 (Herbicidal ratio of 40% or higher and lower than 70%) | 3 (Herbicidal ratio of 40% or higher and lower than 70%) | 5 (Herbicidal ratio of 90% or more (almost completely withered)) | 5 (Herbicidal ratio of 90% or more (almost completely withered)) | 4 (Herbicidal ratio of 70% or higher and lower than 90%) | 5 (Herbicidal ratio of 90% or more (almost completely withered)) | 5 (Herbicidal ratio of 90% or more (almost completely withered)) | 5 (Herbicidal ratio of 90% or more (almost completely withered)) | 5 (Herbicidal ratio of 90% or more (almost completely withered)) |  |  |  |  |  |  | c (corn) effect on crop grade (corn; [5]): 4 (Herbicidal ratio of 70% or higher and lower than 90%); L (Apera spica-venti) herbicidal effect grade (Apera spica-venti [3]): 5 (Herbicidal ratio of 90% or more (almost completely withered)); d (soybean) effect on crop grade (soybean; [5]): 4 (Herbicidal ratio of 70% or higher and lower than 90%); Q (Galium spurium) herbicidal effect grade (Galium spurium; [5]): 5 (Herbicidal ratio of 90% or more (almost completely withered))
CON=C(C)CC1CC(OC(=O)c2ccccc2OC(F)(F)F)=C(c2c(C)cc(C)cc2C)C1=O (stereo not drawn) [1-155] |  | 5 (Herbicidal ratio of 90% or more (almost completely withered)) |  |  |  |  |  | 5 (Herbicidal ratio of 90% or more (almost completely withered)) |  |  |  |  |  |  |  | f: beet, effect on crop (criteria 0-5) (beet): 2 (Herbicidal ratio of 20% or higher and lower than 40%); N: Amaranthus retroflexus, herbicidal effect (criteria 0-5) (Amaranthus retroflexus): 2 (Herbicidal ratio of 20% or higher and lower than 40%); c: corn, effect grade on crop (corn; 320 g/ha): 3 (Herbicidal ratio of 40% or higher and lower than 70%); e: wheat, effect grade on crop (wheat; 320 g/ha): 3 (Herbicidal ratio of 40% or higher and lower than 70%); H: Echinochloa crus-galli var. crus-galli, herbicidal effect (criteria 0-5) [1]: 5 (Herbicidal ratio of 90% or more (almost completely withered)); g: rapeseed, effect on crop (criteria 0-5) (rapeseed): 4 (Herbicidal ratio of 70% or higher and lower than 90%); P: Stellaria media, herbicidal effect grade (Stellaria media; 320 g/ha): 0 (Herbicidal ratio of 5% or lower (almost no effect)); L: Apera spica-venti, herbicidal effect (criteria 0-5) (Apera spica-venti [2]): 5 (Herbicidal ratio of 90% or more (almost completely withered)); d: soybean, effect grade on crop (soybean; 320 g/ha): 0 (Herbicidal ratio of 5% or lower (almost no effect)); K: Lolium multiflorum Lam., herbicidal effect (criteria 0-5) (Lolium multiflorum Lam.): 5 (Herbicidal ratio of 90% or more (almost completely withered)); Q: Galium spurium, herbicidal effect grade (Galium spurium; 320 g/ha): 0 (Herbicidal ratio of 5% or lower (almost no effect)); I: Avena fatua, herbicidal effect (criteria 0-5) (Avena fatua): 5 (Herbicidal ratio of 90% or more (almost completely withered))
Cc1cc(C)c(C2=C(O)CC(CC(=O)C(C)(C)C)C2=O)c(C)c1 (stereo not drawn) [2-022] | 0 (Herbicidal ratio of 5% or lower (almost no effect)) | 0 (Herbicidal ratio of 5% or lower (almost no effect)) | 0 (Herbicidal ratio of 5% or lower (almost no effect)) | 1 (Herbicidal ratio of 5% or higher and lower than 20%) | 1 (Herbicidal ratio of 5% or higher and lower than 20%) | 2 (Herbicidal ratio of 20% or higher and lower than 40%) | 5 (Herbicidal ratio of 90% or more (almost completely withered)) | 1 (Herbicidal ratio of 5% or higher and lower than 20%) | 0 (Herbicidal ratio of 5% or lower (almost no effect)) | 0 (Herbicidal ratio of 5% or lower (almost no effect)) | 0 (Herbicidal ratio of 5% or lower (almost no effect)) | 0 (Herbicidal ratio of 5% or lower (almost no effect)) | 0 (Herbicidal ratio of 5% or lower (almost no effect)) | 0 (Herbicidal ratio of 5% or lower (almost no effect)) | 0 (Herbicidal ratio of 5% or lower (almost no effect)) | 
C=CC(=O)CC1CC(O)=C(c2c(C)cc(C)cc2C)C1=O (stereo not drawn) [2-031] | 0 (Herbicidal ratio of 5% or lower (almost no effect)) | 0 (Herbicidal ratio of 5% or lower (almost no effect)) | 0 (Herbicidal ratio of 5% or lower (almost no effect)) | 5 (Herbicidal ratio of 90% or more (almost completely withered)) | 4 (Herbicidal ratio of 70% or higher and lower than 90%) | 4 (Herbicidal ratio of 70% or higher and lower than 90%) | 5 (Herbicidal ratio of 90% or more (almost completely withered)) | 5 (Herbicidal ratio of 90% or more (almost completely withered)) | 5 (Herbicidal ratio of 90% or more (almost completely withered)) | 5 (Herbicidal ratio of 90% or more (almost completely withered)) | 3 (Herbicidal ratio of 40% or higher and lower than 70%) | 0 (Herbicidal ratio of 5% or lower (almost no effect)) | 2 (Herbicidal ratio of 20% or higher and lower than 40%) | 0 (Herbicidal ratio of 5% or lower (almost no effect)) | 0 (Herbicidal ratio of 5% or lower (almost no effect)) | 
CON=C(C)CC1CC(O)=C(c2c(C)cc(C)cc2Br)C1=O (stereo not drawn) [6-038] | 0 (Herbicidal ratio of 5% or lower (almost no effect)) | 4 (Herbicidal ratio of 70% or higher and lower than 90%) | 5 (Herbicidal ratio of 90% or more (almost completely withered)) | 5 (Herbicidal ratio of 90% or more (almost completely withered)) | 5 (Herbicidal ratio of 90% or more (almost completely withered)) | 5 (Herbicidal ratio of 90% or more (almost completely withered)) | 5 (Herbicidal ratio of 90% or more (almost completely withered)) | 5 (Herbicidal ratio of 90% or more (almost completely withered)) | 5 (Herbicidal ratio of 90% or more (almost completely withered)) | 5 (Herbicidal ratio of 90% or more (almost completely withered)) | 1 (Herbicidal ratio of 5% or higher and lower than 20%) | 0 (Herbicidal ratio of 5% or lower (almost no effect)) | 5 (Herbicidal ratio of 90% or more (almost completely withered)) | 1 (Herbicidal ratio of 5% or higher and lower than 20%) | 1 (Herbicidal ratio of 5% or higher and lower than 20%) | 
